# Tested on: not given
# Assay: not given
# Details: U.S. Pat. No. 3,145,215; cited from earlier work
row,Structure (SMILES),hypotensive activity (in words)
1,CN1CCN(CCNC(=O)c2n[nH]c3ccccc23)CC1 [N-[2-(4-methyl-1-piperazinyl)ethyl]-1H-indazole-3-carboxamide],has hypotensive activity

# Tested on: 5-HT4 receptor
# Assay: not given
# Details: WO 9303725; cited from earlier work
row,Structure (SMILES),5-HT4 receptor antagonist activity (in words)
1,CCCCN1CCC(COC(=O)c2nn(C)c3ccccc23)CC1 [(1-butyl-4-piperidyl)methyl-1-methylindazole-3-carboxylate],has a 5-HT4 receptor antagonist activity

# Target: T1, 5-HT4 receptor (rat oesophageal tunica muscularis mucosae) (Rattus norvegicus, UniProt Q62758)
# T1 construct: oesophageal tunica muscularis mucosae excised from rats; from tissue; host or cells: rat oesophageal tunica muscularis mucosae
# T1 sequence (Q62758 whole entry): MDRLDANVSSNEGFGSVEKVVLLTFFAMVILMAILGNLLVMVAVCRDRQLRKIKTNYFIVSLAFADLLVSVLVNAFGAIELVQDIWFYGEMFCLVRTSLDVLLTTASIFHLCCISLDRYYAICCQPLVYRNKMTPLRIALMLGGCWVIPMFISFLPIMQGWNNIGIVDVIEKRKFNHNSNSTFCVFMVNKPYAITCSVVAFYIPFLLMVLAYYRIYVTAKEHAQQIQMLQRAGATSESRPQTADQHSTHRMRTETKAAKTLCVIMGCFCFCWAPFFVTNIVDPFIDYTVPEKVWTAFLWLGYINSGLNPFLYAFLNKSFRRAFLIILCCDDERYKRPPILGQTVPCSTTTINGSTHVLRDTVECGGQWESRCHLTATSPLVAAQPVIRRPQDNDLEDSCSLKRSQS
# Assay: 5-HT4 agonist activity: relaxation of carbachol-contracted rat oesophageal tunica muscularis mucosae
# Type: cell-based
# Details: not given
# Experimental: The agonist activities of the indazole derivatives of the present invention and Mosapride were determined by the following method, that is, the method determining 5-HT4 agonist activity by using rat oesophageal tunica muscularis mucosae (Naunyn-Schmiedeberg's Arch. Pharmacol., Vol. 343, 439-446, 1991).
# According to the method of the literature, the oesophageal tunica muscularis mucosae excised from rats were suspended in an organ bath containing Krebs-Henseleit solution aerated with a mixed gas (95% O2, 5% CO2) and contracted with carbachol (1×10^-6 M). After the contraction was stabilized, the cumulative administration of the compounds was performed to determine the relaxation of the rat oesophagus pre-contracted with carbachol. The concentration (ED50) to cause 50% relaxation of the carbachol-induced contraction was measured. The result is expressed in terms of -log ED50 and shown in the following table in which higher numerical value indicates higher activity.
row,Structure (SMILES),EC50
1,"CCCN1CCN(CCNC(=O)c2nn(CCC)c3ccccc23)CC1 [Compound 26, N-[2-(4-n-Propyl-1-piperazinyl)ethyl]-1-n-propylindazole-3-carboxamide]",8.91 µM
2,"CCCCN1CCN(CCNC(=O)c2nn(C3CCCC3)c3ccccc23)CC1 [Compound 31, N-[2-(4-n-Butyl-1-piperazinyl)ethyl]-1-cyclopentylindazole-3-carboxamide]",5.01 µM
3,"CCCCN1CCC(CCNC(=O)c2nn(CCC)c3ccccc23)CC1 [Compound 19, N-[2-(1-n-Butyl-4-piperidyl)ethyl]-1-n-propylindazole-3-carboxamide]",1.29 µM
4,"CCCn1nc(C(=O)NCCN2CCN(Cc3ccc(F)cc3)CC2)c2ccccc21 [Compound 15, N-[2-(4-p-Fluorobenzyl-1-piperazinyl)ethyl]-1-n-propylindazole-3-carboxamide]",6.76 µM
5,"CCCn1nc(C(=O)NC2CCN(C)CC2)c2ccccc21 [Compound 22, N-(1-Methyl-4-piperidyl)-1-n-propylindazole-3-carboxamide]",6.92 µM
6,"CCCCN1CCN(CCCNC(=O)c2nn(CCC)c3ccccc23)CC1 [Compound 1, N-[3-(4-n-Butyl-1-piperazinyl)propyl]-1-n-propylindazole-3-carboxamide]",10.5 µM
7,"CCCn1nc(C(=O)NCCN2CCN(C)CC2)c2ccccc21 [Compound 2, N-[2-(4-Methyl-1-piperazinyl)ethyl]-1-n-propylindazole-3-carboxamide]",20.4 µM
8,"CCCCN1CCN(CCNC(=O)c2nn(C(C)C)c3ccccc23)CC1 [Compound 30, N-[2-(4-n-Butyl-1-piperazinyl)ethyl]-1-isopropylindazole-3-carboxamide]",2.95 µM
9,"CCCn1nc(C(=O)NCC2CCNCC2)c2ccccc21 [Compound 21, N-(4-Piperidyl)methyl-1-n-propylindazole-3-carboxamide]",47.9 µM
10,"CCCCN1CCN(CCNC(=O)c2nn(C(CC)CC)c3ccccc23)CC1 [Compound 14, N-[2-(4-n-Butyl-1-piperazinyl)ethyl]-1-(3-pentyl)indazole-3-carboxamide]",6.03 µM
11,"CCCCN1CCN(CCNC(=O)c2nn(C(C)CC)c3ccccc23)CC1 (stereo not drawn) [Compound 13, N-[2-(4-n-Butyl-1-piperazinyl)ethyl]-1-sec-butylindazole-3-carboxamide]",5.5 µM
12,"CCCCCN1CCN(CCNC(=O)c2nn(CCC)c3ccccc23)CC1 [Compound 27, N-[2-(4-n-Pentyl-1-piperazinyl)ethyl]-1-n-propylindazole-3-carboxamide]",2.69 µM
13,"CCCn1nc(C(=O)NC2CCNCC2)c2ccccc21 [Compound 20, N-(4-Piperidyl)-1-n-propylindazole-3-carboxamide]",112 µM
14,"CCCn1nc(C(=O)NCCC2CCN(C)CC2)c2ccccc21 [Compound 8, N-[2-(1-Methyl-4-piperidyl)ethyl]-1-n-propylindazole-3-carboxamide]",10.7 µM
15,"CCCCN1CCC(NC(=O)c2nn(CCC)c3ccccc23)CC1 [Compound 23, N-(1-n-Butyl-4-piperidyl)-1-n-propylindazole-3-carboxamide]",2.82 µM
16,"CCCCN1CCC(CNC(=O)c2nn(CCC)c3ccccc23)CC1 [Compound 18, N-(1-n-Butyl-4-piperidyl)methyl-1-n-propylindazole-3-carboxamide]",7.94 µM
17,"CCCn1nc(C(=O)NCC=C2CCN(C)CC2)c2ccccc21 [Compound 4, N-[2-(1-Methyl-4-piperidylidene)ethyl]-1-n-propylindazole-3-carboxamide]",9.77 µM
18,"C=CCn1nc(C(=O)NCCN2CCN(Cc3ccc(F)cc3)CC2)c2ccccc21 [Compound 16, N-[2-(4-p-Fluorobenzyl-1-piperazinyl)ethyl]-1-allylindazole-3-carboxamide]",7.41 µM
19,"CCCCN1CCN(CCNC(=O)c2nn(CC)c3ccccc23)CC1 [Compound 29, N-[2-(4-n-Butyl-1-piperazinyl)ethyl]-1-ethylindazole-3-carboxamide]",10.2 µM
20,"CCCCN1CCN(CCNC(=O)c2nn(CCC)c3ccccc23)CC1 [Compound 3, N-[2-(4-n-Butyl-1-piperazinyl)ethyl]-1-n-propylindazole-3-carboxamide]",2.4 µM
21,"CCCn1nc(C(=O)NCC2CCN(C)CC2)c2ccccc21 [Compound 7, N-(1-Methyl-4-piperidyl)methyl-1-n-propylindazole-3-carboxamide]",5.01 µM
22,"CCCn1nc(C(=O)NC2CCN(Cc3ccccc3)CC2)c2ccccc21 [Compound 17, N-(1-Benzyl-4-piperidyl)-1-n-propylindazole-3-carboxamide]",3.39 µM
23,"CCCCN1CCC(=CCNC(=O)c2nn(CCC)c3ccccc23)CC1 [Compound 5, N-[2-(1-n-Butyl-4-piperidylidene)ethyl]-1-n-propylindazole-3-carboxamide]",0.437 µM
24,"C=CCN1CCN(CCNC(=O)c2nn(CCC)c3ccccc23)CC1 [Compound 25, N-[2-(4-Allyl-1-piperazinyl)ethyl]-1-n-propylindazole-3-carboxamide]",6.03 µM
25,"CCCn1nc(C(=O)NCCN2CCN(Cc3ccc(OC)cc3)CC2)c2ccccc21 [Compound 28, N-[2-(4-p-Methoxybenzyl-1-piperazinyl)ethyl]-1-n-propylindazole-3-carboxamide]",1.58 µM
26,"CCCCN1CCCC(NC(=O)c2nn(CCC)c3ccccc23)CCC1 [Compound 6, N-(1-n-Butyl-5-octahydroazocinyl)-1-n-propylindazole-3-carboxamide]",6.46 µM
27,"CCCn1nc(C(=O)NCC=C2CCN(Cc3ccc(F)cc3)CC2)c2ccccc21 [Compound 12, N-[2-(1-p-Fluorobenzyl-4-piperidylidene)ethyl]-1-n-propylindazole-3-carboxamide]",3.39 µM

# Same assay, conditions: concentration causing 50% relaxation of the carbachol (1×10^-6 M)-induced contraction; cumulative administration; read-out: Activity (-log ED50) (converted)
row,Structure (SMILES),EC50
1,"O=C(NCCN1CCN(Cc2ccc(F)cc2)CC1)c1n[nH]c2ccccc12 [Compound 11, N-[2-(4-p-Fluorobenzyl-1-piperazinyl)ethyl]-1H-indazole-3-carboxamide]",12.6 µM
2,"O=C(NCC=C1CCN(Cc2ccc(F)cc2)CC1)c1n[nH]c2ccccc12 [Compound 9, N-[2-(1-p-Fluorobenzyl-4-piperidylidene)ethyl]-1H-indazole-3-carboxamide]",7.41 µM
3,"CCCCN1CCN(CCNCc2nn(CCC)c3ccccc23)CC1 [Compound 33, 3-{N-[2-(4-n-Butyl-1-piperazinyl)ethyl]aminomethyl}-1-n-propylindazole]",29.5 µM
4,"CCCCN1CCN(CCNC(=S)c2nn(CCC)c3ccccc23)CC1 [Compound 32, N-[2-(4-n-Butyl-1-piperazinyl)ethyl]-1-n-propylindazole-3-thiocarboxamide]",10.5 µM
